Data as given in the supplement of paper PMC12076712.

Tests used:
Experiment in all cases: pIC50, kinobeads binding competition
UniProt O94768 = target: T1, UniProt O94768
T1 sequence (whole entry): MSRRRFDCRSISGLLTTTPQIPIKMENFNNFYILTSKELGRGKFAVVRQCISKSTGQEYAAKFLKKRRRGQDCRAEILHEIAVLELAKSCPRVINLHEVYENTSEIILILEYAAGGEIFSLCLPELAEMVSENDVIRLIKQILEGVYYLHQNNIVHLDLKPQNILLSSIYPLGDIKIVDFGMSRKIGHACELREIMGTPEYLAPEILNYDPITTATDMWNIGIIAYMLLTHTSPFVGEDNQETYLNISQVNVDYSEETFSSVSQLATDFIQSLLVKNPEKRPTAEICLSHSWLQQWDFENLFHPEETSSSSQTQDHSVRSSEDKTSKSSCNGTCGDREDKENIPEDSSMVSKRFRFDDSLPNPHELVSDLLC
Method in brief: (§1)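 Jurkat cells were exposed alive to nine compound concentrations (top 30 μM, 1:4 steps) or vehicle for 60 min at 37 °C and then lysed. In a second format, nine concentrations (top 30 μM, 1:5 steps) were incubated for 60 min at 4 °C with Jurkat lysate or with a 1:1:1:1 lysate mix of HEK293, K-562, HepG2 and placenta. Proteins captured on Kinobeads were digested and quantified by TMT10 LC-MS/MS. pIC50 values were derived from logistic dose-response fits (R drc package) of fold changes relative to vehicle, in biological duplicates.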

UniProt O60285 = target: T2, UniProt O60285; details: cell material: Lysate mix
T2 sequence (whole entry): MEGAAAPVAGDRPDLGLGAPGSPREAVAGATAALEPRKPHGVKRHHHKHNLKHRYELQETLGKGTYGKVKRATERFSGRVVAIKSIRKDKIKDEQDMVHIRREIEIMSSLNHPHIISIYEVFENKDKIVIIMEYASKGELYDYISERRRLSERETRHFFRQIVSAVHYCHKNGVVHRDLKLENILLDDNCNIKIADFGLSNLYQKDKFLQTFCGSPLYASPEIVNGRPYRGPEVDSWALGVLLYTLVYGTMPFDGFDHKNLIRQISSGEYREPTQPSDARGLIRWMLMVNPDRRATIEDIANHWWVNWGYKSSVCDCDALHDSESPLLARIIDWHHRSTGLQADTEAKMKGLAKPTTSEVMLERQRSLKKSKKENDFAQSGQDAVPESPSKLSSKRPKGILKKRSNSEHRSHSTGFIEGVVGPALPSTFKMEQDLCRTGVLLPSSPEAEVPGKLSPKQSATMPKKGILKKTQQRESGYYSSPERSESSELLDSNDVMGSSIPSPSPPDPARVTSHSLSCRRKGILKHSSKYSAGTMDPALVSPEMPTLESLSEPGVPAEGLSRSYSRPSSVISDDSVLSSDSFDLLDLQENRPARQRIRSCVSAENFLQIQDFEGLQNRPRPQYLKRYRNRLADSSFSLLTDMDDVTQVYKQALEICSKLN
Method in brief: as §1

EPHB3 = target: T3, EPHB3 (UniProt P54753); details: cell material: Lysate mix
T3 sequence (whole entry): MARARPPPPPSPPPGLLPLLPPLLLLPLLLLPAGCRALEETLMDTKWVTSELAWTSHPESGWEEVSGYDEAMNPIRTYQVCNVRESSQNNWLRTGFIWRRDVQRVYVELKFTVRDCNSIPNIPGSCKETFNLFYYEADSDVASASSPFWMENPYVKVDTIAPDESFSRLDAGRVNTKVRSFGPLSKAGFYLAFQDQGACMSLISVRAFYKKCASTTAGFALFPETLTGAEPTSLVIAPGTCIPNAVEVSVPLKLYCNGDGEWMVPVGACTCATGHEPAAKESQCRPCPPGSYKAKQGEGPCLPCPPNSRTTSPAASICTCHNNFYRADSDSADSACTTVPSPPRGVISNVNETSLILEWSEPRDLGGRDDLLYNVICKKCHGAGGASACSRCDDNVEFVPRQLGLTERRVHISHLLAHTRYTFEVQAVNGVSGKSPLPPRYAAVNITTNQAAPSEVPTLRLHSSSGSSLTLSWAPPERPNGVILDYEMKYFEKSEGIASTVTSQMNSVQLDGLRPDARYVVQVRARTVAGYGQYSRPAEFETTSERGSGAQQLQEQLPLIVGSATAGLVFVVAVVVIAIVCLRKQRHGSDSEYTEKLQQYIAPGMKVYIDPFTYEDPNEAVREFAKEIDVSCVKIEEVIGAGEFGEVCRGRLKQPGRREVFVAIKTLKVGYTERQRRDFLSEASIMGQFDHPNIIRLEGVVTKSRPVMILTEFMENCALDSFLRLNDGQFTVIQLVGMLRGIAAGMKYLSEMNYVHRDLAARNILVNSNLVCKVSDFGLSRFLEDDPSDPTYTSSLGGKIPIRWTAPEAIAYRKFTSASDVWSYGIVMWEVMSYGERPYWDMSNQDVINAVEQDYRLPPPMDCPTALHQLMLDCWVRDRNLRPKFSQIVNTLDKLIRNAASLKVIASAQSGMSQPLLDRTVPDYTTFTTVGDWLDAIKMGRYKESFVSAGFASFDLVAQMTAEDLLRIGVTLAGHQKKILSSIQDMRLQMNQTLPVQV
Method in brief: as §1

PRKAA2 = PRKAA2 (UniProt P54646); details: cell material: Lysate mix
Method in brief: as §1

SRC = SRC (UniProt P12931)
Method in brief: as §1

PLK1 = PLK1 (UniProt P53350)
Method in brief: as §1

CAMKK2 = CAMKK2 (UniProt Q96RR4)
Method in brief: as §1

UniProt Q13163 = target: T4, UniProt Q13163
T4 sequence (whole entry): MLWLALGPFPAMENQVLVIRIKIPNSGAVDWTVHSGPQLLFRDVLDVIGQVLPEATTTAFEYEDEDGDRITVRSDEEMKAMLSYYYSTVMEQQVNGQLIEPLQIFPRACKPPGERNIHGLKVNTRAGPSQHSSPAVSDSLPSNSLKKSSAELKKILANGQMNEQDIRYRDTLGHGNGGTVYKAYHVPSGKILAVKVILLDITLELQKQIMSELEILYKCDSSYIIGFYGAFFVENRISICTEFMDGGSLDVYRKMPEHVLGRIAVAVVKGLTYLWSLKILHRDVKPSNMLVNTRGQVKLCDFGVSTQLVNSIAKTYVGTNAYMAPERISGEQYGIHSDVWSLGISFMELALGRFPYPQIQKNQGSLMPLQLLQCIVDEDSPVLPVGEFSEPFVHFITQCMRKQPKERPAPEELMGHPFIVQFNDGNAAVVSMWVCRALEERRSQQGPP
Method in brief: as §1

MAP4K4 = MAP4K4 (UniProt O95819)
Method in brief: as §1

Chain of PRKAA2 (P54646 whole entry, looked up): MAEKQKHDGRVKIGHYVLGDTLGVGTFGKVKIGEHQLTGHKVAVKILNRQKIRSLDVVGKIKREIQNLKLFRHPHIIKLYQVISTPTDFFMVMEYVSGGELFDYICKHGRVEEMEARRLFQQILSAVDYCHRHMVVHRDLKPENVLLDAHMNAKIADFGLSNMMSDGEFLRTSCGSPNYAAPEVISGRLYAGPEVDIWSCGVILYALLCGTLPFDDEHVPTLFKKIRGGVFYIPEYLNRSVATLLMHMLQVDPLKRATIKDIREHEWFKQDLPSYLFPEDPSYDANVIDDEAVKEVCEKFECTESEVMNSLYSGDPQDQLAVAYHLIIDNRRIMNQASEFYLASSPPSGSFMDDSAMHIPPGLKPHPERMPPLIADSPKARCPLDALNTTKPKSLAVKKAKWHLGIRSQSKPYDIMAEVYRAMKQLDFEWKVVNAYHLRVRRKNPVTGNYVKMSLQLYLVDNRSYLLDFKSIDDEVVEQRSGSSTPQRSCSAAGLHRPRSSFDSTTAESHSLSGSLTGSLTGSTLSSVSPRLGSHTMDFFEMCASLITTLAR
Chain of SRC (P12931 whole entry, looked up): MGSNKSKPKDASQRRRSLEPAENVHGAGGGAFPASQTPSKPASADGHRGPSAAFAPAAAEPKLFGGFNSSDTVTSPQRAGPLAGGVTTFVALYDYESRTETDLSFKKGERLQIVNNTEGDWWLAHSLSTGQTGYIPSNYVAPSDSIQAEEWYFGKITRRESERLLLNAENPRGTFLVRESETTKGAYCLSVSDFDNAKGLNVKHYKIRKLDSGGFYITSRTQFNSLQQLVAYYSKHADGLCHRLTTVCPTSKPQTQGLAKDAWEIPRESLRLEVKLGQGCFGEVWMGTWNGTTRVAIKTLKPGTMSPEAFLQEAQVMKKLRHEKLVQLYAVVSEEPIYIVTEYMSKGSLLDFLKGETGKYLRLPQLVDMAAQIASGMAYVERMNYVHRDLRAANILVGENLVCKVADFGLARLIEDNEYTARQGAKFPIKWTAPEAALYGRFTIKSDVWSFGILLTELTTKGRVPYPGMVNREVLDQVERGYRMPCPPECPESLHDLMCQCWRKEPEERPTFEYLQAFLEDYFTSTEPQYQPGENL
Chain of MAP4K4 (O95819 whole entry, looked up): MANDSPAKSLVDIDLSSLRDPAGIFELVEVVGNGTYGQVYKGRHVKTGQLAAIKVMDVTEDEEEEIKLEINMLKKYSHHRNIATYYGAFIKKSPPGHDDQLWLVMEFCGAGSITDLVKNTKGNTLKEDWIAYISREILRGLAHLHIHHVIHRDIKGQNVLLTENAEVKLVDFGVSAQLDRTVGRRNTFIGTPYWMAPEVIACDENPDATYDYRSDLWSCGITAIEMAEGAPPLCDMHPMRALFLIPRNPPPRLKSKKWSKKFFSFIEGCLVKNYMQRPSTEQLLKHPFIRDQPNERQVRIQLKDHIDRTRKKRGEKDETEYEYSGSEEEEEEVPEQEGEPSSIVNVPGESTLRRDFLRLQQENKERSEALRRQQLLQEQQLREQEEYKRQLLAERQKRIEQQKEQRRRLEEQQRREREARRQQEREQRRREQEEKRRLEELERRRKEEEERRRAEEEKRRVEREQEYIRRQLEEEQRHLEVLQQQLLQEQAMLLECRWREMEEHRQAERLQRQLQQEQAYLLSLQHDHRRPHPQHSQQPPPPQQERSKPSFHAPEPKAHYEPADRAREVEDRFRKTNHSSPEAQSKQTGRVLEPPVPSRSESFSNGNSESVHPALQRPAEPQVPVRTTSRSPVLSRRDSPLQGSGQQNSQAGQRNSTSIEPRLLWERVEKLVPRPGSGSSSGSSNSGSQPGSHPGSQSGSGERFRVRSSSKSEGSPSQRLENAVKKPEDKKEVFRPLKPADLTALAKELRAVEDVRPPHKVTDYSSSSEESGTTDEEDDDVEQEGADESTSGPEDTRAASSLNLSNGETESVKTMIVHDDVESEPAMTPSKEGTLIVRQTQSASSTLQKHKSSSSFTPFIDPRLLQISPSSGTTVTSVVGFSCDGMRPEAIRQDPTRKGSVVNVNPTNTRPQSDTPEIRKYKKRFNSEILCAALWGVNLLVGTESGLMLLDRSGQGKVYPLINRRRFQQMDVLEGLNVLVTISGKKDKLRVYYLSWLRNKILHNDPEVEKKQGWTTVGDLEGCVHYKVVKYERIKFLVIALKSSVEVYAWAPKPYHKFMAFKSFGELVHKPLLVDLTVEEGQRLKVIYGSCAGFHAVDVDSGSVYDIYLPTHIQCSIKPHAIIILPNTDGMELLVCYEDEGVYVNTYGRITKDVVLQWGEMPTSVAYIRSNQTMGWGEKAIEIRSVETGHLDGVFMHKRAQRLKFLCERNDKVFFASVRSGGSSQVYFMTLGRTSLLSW
Chain of PLK1 (P53350 whole entry): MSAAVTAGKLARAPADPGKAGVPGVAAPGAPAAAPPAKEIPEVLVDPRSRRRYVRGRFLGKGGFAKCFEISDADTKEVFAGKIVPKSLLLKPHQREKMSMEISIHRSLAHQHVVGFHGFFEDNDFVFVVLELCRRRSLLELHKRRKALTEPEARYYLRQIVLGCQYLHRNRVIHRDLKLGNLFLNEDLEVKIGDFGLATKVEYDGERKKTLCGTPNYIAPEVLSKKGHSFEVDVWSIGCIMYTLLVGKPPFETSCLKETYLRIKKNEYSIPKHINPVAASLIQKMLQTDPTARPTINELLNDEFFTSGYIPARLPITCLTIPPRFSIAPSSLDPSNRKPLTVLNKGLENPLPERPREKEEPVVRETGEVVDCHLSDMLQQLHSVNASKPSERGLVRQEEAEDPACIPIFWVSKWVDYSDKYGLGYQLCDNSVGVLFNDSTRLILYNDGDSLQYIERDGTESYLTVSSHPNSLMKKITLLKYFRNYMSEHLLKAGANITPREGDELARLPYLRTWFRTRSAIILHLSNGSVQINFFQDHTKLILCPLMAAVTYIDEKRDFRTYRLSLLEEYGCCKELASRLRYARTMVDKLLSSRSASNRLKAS
Chain of CAMKK2 (Q96RR4 whole entry, looked up): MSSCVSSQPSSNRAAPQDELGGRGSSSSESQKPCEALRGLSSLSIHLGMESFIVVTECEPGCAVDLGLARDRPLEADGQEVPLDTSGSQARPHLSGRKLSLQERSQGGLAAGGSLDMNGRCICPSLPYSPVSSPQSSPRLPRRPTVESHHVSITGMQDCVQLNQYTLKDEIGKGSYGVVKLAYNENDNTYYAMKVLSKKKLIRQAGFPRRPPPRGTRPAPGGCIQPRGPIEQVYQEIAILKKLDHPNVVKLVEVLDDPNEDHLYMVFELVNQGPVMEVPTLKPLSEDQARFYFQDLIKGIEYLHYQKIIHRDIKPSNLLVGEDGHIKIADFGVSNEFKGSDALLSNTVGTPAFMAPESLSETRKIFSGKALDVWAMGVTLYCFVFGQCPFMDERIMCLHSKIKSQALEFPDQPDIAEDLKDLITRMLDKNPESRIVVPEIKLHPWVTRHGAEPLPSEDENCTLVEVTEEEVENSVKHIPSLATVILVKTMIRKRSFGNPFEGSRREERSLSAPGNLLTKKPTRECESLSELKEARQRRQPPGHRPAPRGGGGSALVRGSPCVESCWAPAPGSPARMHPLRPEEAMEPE

Row | SMILES | pIC50 (UniProt O94768; cell material: Jurkat cells) | pIC50 (UniProt O94768; cell material: Jurkat lysate) | pIC50 (UniProt O94768; cell material: Lysate mix) | pIC50 (UniProt O60285) | pIC50 (EPHB3) | pIC50 (PRKAA2) | pIC50 (SRC; cell material: Jurkat cells) | pIC50 (SRC; cell material: Jurkat lysate) | pIC50 (PLK1; cell material: Jurkat cells) | pIC50 (PLK1; cell material: Jurkat lysate) | pIC50 (PLK1; cell material: Lysate mix) | pIC50 (CAMKK2; cell material: Jurkat cells) | pIC50 (CAMKK2; cell material: Jurkat lysate) | pIC50 (CAMKK2; cell material: Lysate mix) | pIC50 (UniProt Q13163; cell material: Jurkat cells) | pIC50 (UniProt Q13163; cell material: Jurkat lysate) | pIC50 (UniProt Q13163; cell material: Lysate mix) | pIC50 (MAP4K4; cell material: Jurkat cells) | pIC50 (MAP4K4; cell material: Jurkat lysate) | pIC50 (MAP4K4; cell material: Lysate mix) | pIC50 (SRC; cell material: Lysate mix)
1 | O=C(NCCNC(=O)c1cc(Nc2cc(C3CC3)[nH]n2)nc(N2CCN(Cc3ccc(S(=O)(=O)F)cc3)CC2)n1)OC1CC/C=C/CCC1 (stereo not given) | < 4.52 | < 4.52 | < 4.52 | < 4.52 | < 4.52 | 5.5 | 5.9 | < 4.52 | 5.85 | < 4.52 | < 4.52 | 6.18 | 5.1 | 5 | 4.99 | < 4.52 | < 4.52 | 5.15 | < 4.52 | < 4.52 | –
2 | Cc1cc(Nc2cc(C(=O)NCCNC(=O)OC3CC/C=C/CCC3)nc(N3CCN(Cc4ccc(S(=O)(=O)F)cc4)CC3)n2)n[nH]1 (stereo not given) | – | – | < 4.52 | < 4.52 | < 4.52 | 5.31 | – | – | – | – | < 4.52 | – | – | < 4.52 | – | – | < 4.52 | – | – | < 4.52 | 4.7
3 | CCNC(=O)c1cc(Nc2cc(C3CC3)[nH]n2)nc(N2CCN(Cc3ccc(S(=O)(=O)F)cc3)CC2)n1 | – | – | < 4.52 | 4.98 | < 4.52 | 7.04 | – | – | – | – | < 4.52 | – | – | 5.6 | – | – | 5.28 | – | – | < 4.52 | 6.14
4 | CCNC(=O)c1cc(Nc2cc(C)[nH]n2)nc(N2CCN(Cc3ccc(S(=O)(=O)F)cc3)CC2)n1 | – | – | < 4.52 | < 4.52 | < 4.52 | 7.35 | – | – | – | – | < 4.52 | – | – | < 4.52 | – | – | 4.73 | – | – | < 4.52 | 6.61
5 | C#CCNC(=O)c1cc(Nc2cc(C3CC3)[nH]n2)nc(N2CCN(Cc3ccc(S(=O)(=O)F)cc3)CC2)n1 | – | < 4.52 | < 4.52 | 4.83 | < 4.52 | 7.31 | 6.41 | 5.68 | 5.83 | < 4.52 | < 4.52 | 5.88 | 5.7 | 5.88 | 5.71 | 4.88 | 5.42 | 5.9 | < 4.52 | – | 6.24
6 | C#CCNC(=O)c1cc(Nc2cc(C)[nH]n2)nc(N2CCN(Cc3ccc(S(=O)(=O)F)cc3)CC2)n1 | – | – | < 4.52 | < 4.52 | < 4.52 | 6.53 | – | – | – | – | < 4.52 | – | – | < 4.52 | – | – | 4.64 | – | – | < 4.52 | 5.89
